{"source": "paper PMC11584639", "about": "(Nature Communications, 2024)", "target": "Bruton's tyrosine kinase (BTK) (Mus musculus, UniProt P35991)", "sequence (P35991 2-659)": "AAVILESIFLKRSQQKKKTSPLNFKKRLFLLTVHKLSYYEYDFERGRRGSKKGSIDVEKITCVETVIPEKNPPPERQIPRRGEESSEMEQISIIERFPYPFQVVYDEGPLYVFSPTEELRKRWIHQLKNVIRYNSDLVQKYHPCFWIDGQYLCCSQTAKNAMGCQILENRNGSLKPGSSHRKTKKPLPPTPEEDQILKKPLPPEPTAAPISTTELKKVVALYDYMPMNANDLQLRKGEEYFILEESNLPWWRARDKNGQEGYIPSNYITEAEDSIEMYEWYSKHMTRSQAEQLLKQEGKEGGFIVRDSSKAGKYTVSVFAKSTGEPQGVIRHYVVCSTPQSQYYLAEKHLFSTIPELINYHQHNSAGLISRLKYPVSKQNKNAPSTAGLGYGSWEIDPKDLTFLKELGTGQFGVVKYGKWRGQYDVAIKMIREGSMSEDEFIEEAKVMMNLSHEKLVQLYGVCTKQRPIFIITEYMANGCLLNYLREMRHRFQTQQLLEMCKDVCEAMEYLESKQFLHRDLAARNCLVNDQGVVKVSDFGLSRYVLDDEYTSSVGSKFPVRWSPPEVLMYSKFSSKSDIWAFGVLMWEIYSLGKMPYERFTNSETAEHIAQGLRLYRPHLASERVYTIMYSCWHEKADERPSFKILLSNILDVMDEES", "format": "cell-based", "data": [{"molecule": "C=CC(=O)N1CCC[C@@H](n2c(=O)n(-c3ccc(Oc4ccccc4)cc3)c3c(N)nccc32)C1", "note": "[tolebrutinib]", "values": [{"measurement": "pBTK-to-BTK ratio by Western blot in primary mouse microglia with or without com", "value": "This stimulus increased BTK phosphorylation, which was blocked by tolebrutinib"}]}]}
